The text below walks through data of patent publication US9873889B2, “Increasing leaf longevity and disease resistance by altering salicylic acid catabolism” (priority 2013, dated 2018).

One series concerns the target T1, recombinant S3H (Arabidopsis thaliana, UniProt Q9ZSA8).
T1 construct: His (N); made in house; host or cells: E. coli BL21 (DE3, pLys3)
T1 sequence (Q9ZSA8 1-349): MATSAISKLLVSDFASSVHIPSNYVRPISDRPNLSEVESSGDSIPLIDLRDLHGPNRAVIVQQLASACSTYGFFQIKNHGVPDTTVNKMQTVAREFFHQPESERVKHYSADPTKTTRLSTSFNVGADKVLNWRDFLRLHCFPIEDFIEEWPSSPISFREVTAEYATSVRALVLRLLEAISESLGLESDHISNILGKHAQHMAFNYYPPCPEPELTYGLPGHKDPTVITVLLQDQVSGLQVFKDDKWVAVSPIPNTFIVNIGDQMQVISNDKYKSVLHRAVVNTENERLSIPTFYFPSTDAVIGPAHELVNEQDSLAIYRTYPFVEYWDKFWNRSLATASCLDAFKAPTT
The series is described as follows: Enzyme assay of recombinant S3H (substrate specificity and kinetics). The class given is biochemical. The note with it: for S3H enzyme activity on substrate (in words): 30-min reaction under the same conditions as those for SA. On the procedure:
(§1) The construct pET28a-S3H was introduced into E. coli BL21 (DE3, pLys3, Invitrogen, Carlsbad, Calif.). The bacterial cells containing pET28a-S3H were induced with 0.5 mM isopropyl β-D-1-thiogalactoside (IPTG) for 24 hr at 18° C., and were collected and disrupted by sonication in lysis buffer (20 mM Tris-Cl, pH7.5, 2 mM EDTA, 2 mM β-mercaptoethanol, 1 mM PMSF, 10 mM Imidazole, 0.1% Triton X-100, 20 mM sodium ascorbate). All subsequent purification procedures involving His-Bind® resin were performed at 4° C. according to the manufacturer (Novagen, Madison, Wis.). The recombinant protein concentration was quantified using Quick Start Bradford Dye Reagent (Biorad, Hercules, Calif.). 2 mM DTT was added to the enzyme solution and the protein was immediately kept in a −80° C. refrigerator.
(§2) The enzyme assay was performed using a method modified from Satio et al. (Saito et al., “Direct Evidence for Anthocyanidin Synthase as a 2-Oxoglutarate-Dependent Oxygenase: Molecular Cloning and Functional Expression of cDNA From a Red Forma of Perilla frutescens,” Plant J. 17(2):181-189 (1999), which is hereby incorporated by reference in its entirety). The reaction mixture (100 μl) contained 5 mM DTT, 4 mM sodium ascorbate, 1 mM 2-oxoglutaric acid, 0.4 mM FeSO4, 0.1 mg/ml catalase, 50 mM Tris-Cl pH8.0 or other buffer, 8-15 μg recombinant protein, various concentrations of SA. To determine the optimal temperature and pH for enzyme activity of S3H, the protein was incubated with 200 μM SA substrate in Tris-Cl buffer (pH8.0) at different temperatures for 15 min; or 500 μM SA substrate, in 50 mM Sodium citrate, Tris-Cl and Glycine buffers with different pH at 40° C. for 15 min. For enzyme kinetics analysis, various substrate SA concentrations ranging from 10 to 500 μM were used and the incubation proceeded for 6 min with pH 6.0. […] Mass spectra were recorded over 15 to 800 m/z in the negative mode. Km and Vmax were determined by Graphpad Prism 5 software using non-linear regression for Michaelis-Menten equation.

Series [1] has as its system S3H. The series is described as follows: SA treatment of plants, RNA gel blot analysis of S3H expression. Format: in vivo, Arabidopsis thaliana. Particulars: 5 mM SA spray, Col-0 plants 25 DAG, 6 hours. The procedure: All chemicals used in this research were purchased from Sigma-Aldrich (St. Louis, Mo.), unless otherwise stated. Col-0 plants (25 DAG) were sprayed with 5 mM SA in 0.005% Silwet L-77 (Lehele Seeds, Tex.) or only 0.005% Silwet L-77 (mock). All rosette leaves of individual plants for RNA extraction were collected at different time points after the spray.
Total RNA extraction and RNA blot analysis were performed as described previously (He & Gan, “A Gene Encoding an Acyl Hydrolase Is Involved in Leaf Senescence in Arabidopsis,” Plant Cell 14(4):805-815 (2002), which is hereby incorporated by reference in its entirety). The DNA templates for probe labeling were amplified by the following different pairs of primers: S3H, G2956 and G2957; AtNAP, G3149 and G3150; SAG12, G10 and G246; SAG13, G9 and G16; EDS1, EDS1F and EDS1R; PAD4, PAD4F and PAD4R; PR1, PR1F and PR1R (FIG. 1E). The ethidium bromide staining of the RNA gels was used to show approximate amount of total RNA loading on each lane.

In series [2] the test system is S3H. Particulars: 10 μM, Col-0 (Seedling), 3 hrs; cited from earlier work.
Substrate in series [3]: O=C(O)c1ccccc1O
The series is described as follows: Enzyme assay of recombinant S3H (substrate specificity and kinetics). The note with it: other: pH 6.0 and 40° C. for 6 min, mean ± SE of four replicates. The class given is biochemical, Arabidopsis thaliana. On the procedure: as §1, §2

As for `O=C(O)c1ccccc1O` [Salicylic acid], the Specific activity at recombinant S3H (pH 6.0 and 40° C. for 30 min, mean ± SE of three replicates, n.d. = not detectable) stood at 78.06 ± 9.75 nmol/mg/min. For the same molecule, in the series on S3H [1], the “S3H expression after SA treatment (RNA gel blot)” value was “readily inducible”. In addition, the “Induction folds of S3H” value in the series on S3H [2] is reported as 36.72.
As for `O=C(O)c1ccccc1` [Benzoic acid], the “S3H enzyme activity on substrate (in words)” value on recombinant S3H is given as “did not have detectable activity”.
Same read-out and setting: as for `Nc1ccccc1C(=O)O` [Anthranilic acid], the entry is “did not have detectable activity”.

B1: recombinant S3H (Arabidopsis thaliana) (protein)
chain: MATSAISKLLVSDFASSVHIPSNYVRPISDRPNLSEVESSGDSIPLIDLRDLHGPNRAVIVQQLASACSTYGFFQIKNHGVPDTTVNKMQTVAREFFHQPESERVKHYSADPTKTTRLSTSFNVGADKVLNWRDFLRLHCFPIEDFIEEWPSSPISFREVTAEYATSVRALVLRLLEAISESLGLESDHISNILGKHAQHMAFNYYPPCPEPELTYGLPGHKDPTVITVLLQDQVSGLQVFKDDKWVAVSPIPNTFIVNIGDQMQVISNDKYKSVLHRAVVNTENERLSIPTFYFPSTDAVIGPAHELVNEQDSLAIYRTYPFVEYWDKFWNRSLATASCLDAFKAPTT
notes: His (N); made in house; host or cells: E. coli BL21 (DE3, pLys3)
Regarding B1, in series [3], the Michaelis constant (Km) came out at 58.29 µM, the Vmax is 0.498 µmol/min/mg and the kcat/Km came out at 6090 M⁻¹ s⁻¹.

A word on the Km: it is the substrate concentration at which the rate is half of its maximum. Usually Vmax stands for the rate approached at saturating substrate. For orientation: kcat/Km means the second-order rate constant that governs catalysis at low substrate concentration.
